Results reported in ChEMBL document CHEMBL4261496, “Targeting quinolone- and aminocoumarin-resistant bacteria with new gyramide analogs that inhibit DNA gyrase” (Medchemcomm, 2017).
≈ marks a conversion by molar mass, not a printed value. Calls of active or inactive are those of the source. No cut-off for these calls is given here.

Key:
Escherichia coli [1] = assay: Antibacterial activity against Escherichia coli HB101 after 16 to 18 hrs by broth microdilution method; type: functional
Escherichia coli [2] = assay: Antibacterial activity against Escherichia coli JW5503 overexpressing gyrB in presence of IPTG induction after 16 hrs by broth microdilution method; type: functional; settings: JW5503, 16 h
Escherichia coli [3] = assay: Antibacterial activity against Escherichia coli HB101 after 16 to 18 hrs in presence of PAbetaN by broth microdilution method; type: functional
Escherichia coli [4] = assay: Antibacterial activity against Escherichia coli JW5503 after 16 to 18 hrs by broth microdilution method; type: functional
Escherichia coli [5] = assay: Antibacterial activity against novobiocin-resistant Escherichia coli LE316 harboring GyrB Arg136Val mutant after 16 to 18 hrs in presence of PAbetaN by broth microdilution method; type: functional
Escherichia coli [6] = assay: Antibacterial activity against Escherichia coli JW5503 transfected with empty vector in presence of IPTG induction after 16 hrs by broth microdilution method; type: functional; settings: JW5503, 16 h
Escherichia coli [7] = assay: Antibacterial activity against Escherichia coli JW5503 transfected with empty vector in absence of IPTG induction after 16 hrs by broth microdilution method; type: functional; settings: JW5503, 16 h
Escherichia coli [8] = assay: Antibacterial activity against Escherichia coli JW5503 overexpressing gyrB at 51 ug/ml in presence of IPTG induction after 16 hrs by broth microdilution method; type: functional, organism-based
Escherichia coli [9] = assay: Antibacterial activity against Escherichia coli JW5503 overexpressing gyrA/gyrB in presence of IPTG induction after 16 hrs by broth microdilution method; type: functional; settings: JW5503, 16 h
Escherichia coli [10] = assay: Antibacterial activity against novobiocin-resistant Escherichia coli CC5 harboring GyrB Arg136His mutant after 16 to 18 hrs in presence of PAbetaN by broth microdilution method; type: functional
Escherichia coli [11] = assay: Antibacterial activity against novobiocin-resistant Escherichia coli CC7 harboring GyrB Arg136Ser mutant after 16 to 18 hrs in presence of PAbetaN by broth microdilution method; type: functional
Escherichia coli [12] = assay: Antibacterial activity against ciprofloxacin-resistant Escherichia coli JW5503 harboring GyrA Ser83Leu mutant after 16 to 18 hrs by broth microdilution method; type: functional
Escherichia coli [13] = assay: Antibacterial activity against Escherichia coli transfected with empty vector
[14] = target: DNA gyrase (Escherichia coli) (UniProt P0AES6+P0AES4); assay: Inhibition of Escherichia coli DNA gyrase ATPase activity up to 100 uM using DNA as substrate after 60 mins; type: protein-complex assay
Escherichia coli [15] = assay: Antibacterial activity against Escherichia coli JW5503 overexpressing gyrA/gyrB in absence of IPTG induction after 16 hrs by broth microdilution method; type: functional; settings: JW5503, 16 h
Escherichia coli [16] = assay: Antibacterial activity against Escherichia coli JW5503 simultaneously overexpressing gyrA/gyrB in presence of IPTG induction after 16 hrs by broth microdilution method; type: functional, organism-based
Escherichia coli [17] = assay: Antibacterial activity against Escherichia coli JW5503 overexpressing gyrB in absence of IPTG induction after 16 hrs by broth microdilution method; type: functional; settings: JW5503, 16 h
Escherichia coli [18] = assay: Antibacterial activity against Escherichia coli JW5503 overexpressing gyrA in absence of IPTG induction after 16 hrs by broth microdilution method; type: functional; settings: JW5503, 16 h

Row | SMILES | MIC (Escherichia coli [1]) [µg/mL] | MIC (Escherichia coli [2]) [µg/mL] | MIC (Escherichia coli [3]) [µg/mL] | MIC (Escherichia coli [4]) [µg/mL] | MIC (Escherichia coli [5]) [µg/mL] | MIC (Escherichia coli [6]) [µg/mL] | MIC (Escherichia coli [7]) [µg/mL] | Activity (Escherichia coli [8]) | MIC (Escherichia coli [9]) [µg/mL] | MIC (Escherichia coli [10]) [µg/mL] | MIC (Escherichia coli [11]) [µg/mL] | MIC (Escherichia coli [12]) [ng/mL] | MIC (Escherichia coli [13]) [ng/mL] | inhibition [14] | MIC (Escherichia coli [15]) [ng/mL] | Activity (Escherichia coli [16]) | MIC (Escherichia coli [17]) [ng/mL] | MIC (Escherichia coli [18]) [ng/mL]
1 | CO[C@@H]1[C@@H](OC(N)=O)[C@@H](O)[C@H](Oc2ccc3c(O)c(NC(=O)c4ccc(O)c(CC=C(C)C)c4)c(=O)oc3c2C)OC1(C)C [NOVOBIOCIN] | > 100 | 6.3 | 3.2 | 0.8 (≈ 1.31 µM) | 12.8 | 0.4 | 0.4 (≈ 0.653 µM) | inactive | 3.2 | 102 | 6.4 |  |  |  |  |  |  | 
2 | O=C(O)c1cn(C2CC2)c2cc(N3CCNCC3)c(F)cc2c1=O [CIPROFLOXACIN] |  | 0.0021 |  |  |  |  | 0.0021 (≈ 0.00634 µM) |  |  |  |  | 6.4 (≈ 0.0193 µM) | 9 (≈ 0.0272 µM) | inactive | 2.1 (≈ 0.00634 µM) | Active | 2.1 (≈ 0.00634 µM) | 2.1 (≈ 0.00634 µM)
